Where two headings read alike, the source gives them in different places. Marks after values point to notes of the source that are not given here.
Assays:
NCI-H1975 cells = assay: Cytotoxicity (Alamar Blue), parental NCI-H1975; type: cell-based, human; details: 72 h, no elastase
Description: (§1) Cells (6 × 10^3 cells/well) were plated in RPMI-1640 medium supplemented with 2% fetal calf serum (FCS) minimal media (MM) in 96-well plates and allowed to adhere at 37 °C/5% CO2 for 24 h. […] The cells were incubated at 37 °C/5% CO2 for 72 h. Then, Alamar Blue (#DAL1100, Invitrogen, Waltham, MA, USA) was added at a 1:1 ratio, the cells were incubated at 37 °C/5% CO2 for 4 h, and fluorescence (530 nm/590 nm) was measured with a VICTOR X2 Multilabel Reader (PerkinElmer, Waltham, MA, USA). The fluorescent signal was directly proportional to the number of viable cells. The half-maximal growth inhibition (IC50) was determined from the dose–response curves using the GraphPad Prism software.

NCI-H1975-BCRP cells = assay: Cytotoxicity (Alamar Blue), NCI-H1975-BCRP; type: cell-based, human; details: 72 h, no elastase
Description: as §1

Caco-2 cells = assay: Flux assay in Caco-2 cells; type: in vitro ADME, human; details: 2 μM, 2 h
Description: (§2) Before and after incubation for 2 h at 37 °C, samples were taken from both compartments and analyzed by LC-MS/MS. The apparent permeability coefficient (Papp) was calculated for both the apical to basolateral (A → B) and the basolateral to apical (B → A) direction as described by Schwab et al..

NCI-H1975-P-gp cells = assay: Cytotoxicity (Alamar Blue), NCI-H1975-P-gp; type: cell-based, human; details: 72 h, no elastase
[1] = molecular target: T1, human P-gp-expressing LLC-PK1 cells (Homo sapiens, UniProt P08183); assay: Flux assay in human P-gp-expressing LLC-PK1 (L-MDR1) cells; type: in vitro ADME; details: 2 μM, 2 h
T1 construct: Schinkel, Netherlands Cancer Institute; host or cells: LLC-PK1 porcine renal epithelial cells (L-MDR1)
Description: as §2

[2] = system: NCI-H69 SCLC xenograft model; assay: NCI-H69 xenograft antitumor efficacy and tolerability; type: in vivo, mouse; details: for Treatment/Control Ratio / Response: PD (progressive disease) / Response: SD (stable disease): NCI-H69, Day 31; for Response: PD (progressive disease) / Response: SD (stable disease): RECIST
Description: Irinotecan, doxorubicin, topotecan, cisplatin, and 5-FU were diluted in 0.9% NaCl.
In the NCI-H69 efficacy study, immunocompromised female NMRI nu/nu mice (8–10 weeks, 18–21 g, Taconic M&B A/S) were inoculated s.c. with 3 × 10^6 NCI-H69 cells suspended in 50% Matrigel®/50% medium. The mice were randomized into control and treatment groups (n = 8) when the NCI-H69 tumors reached an average size of 25 mm^2.
(§3) Subcutaneous tumor growth was monitored by measuring tumor area (length × width) using a caliper. Animal body weight was monitored as an indicator of treatment-related toxicity. Measurement of tumor area and body weight was performed at least twice weekly. Individual animals were sacrificed when showing >20% body weight loss or when tumors reached a maximum area of ~200 mm^2 unless ulceration or other predefined humane endpoints were met. At study termination, the animals were sacrificed by cervical dislocation under CO2 anesthesia. T/C (treatment/control) ratios were calculated using the final mean tumor areas at study or control group termination. Treatment responses were defined on the last day of the vehicle group (Day 38 for 786-O, Day 86 for MX-1, Day 31 for NCI-H69, and Day 24 for SW480) using the RECIST criteria [59]. Progressive disease (PD) was defined as a greater than 20% increase in tumor size. Partial response (PR) was defined as a greater than 30% reduction in tumor size. Complete response (CR) was defined as an absence of any palpable tumor mass. No tumor growth or a slight reduction (<30%) or small increase (<20%) in tumor size was defined as stable disease (SD).

[3] = system: SW480 CRC xenograft model; assay: SW480 xenograft antitumor efficacy; type: in vivo, mouse; details: for Treatment/Control Ratio: Day 24; for Response: PR (partial response) / Response: SD (stable disease) / Response: PD (progressive disease): Day 24, RECIST
Description: In the SW480 efficacy study, immunocompromised female NMRI nu/nu mice (8–10 weeks, 18–21 g, Taconic M&B A/S) were inoculated subcutaneously with 3 × 10^6 SW480 cells suspended in 50% Matrigel®/50% medium. The mice were randomized into control and treatment groups (n = 8) when the SW480 tumors reached an average size of 25 mm^2.
Subcutaneous tumor growth was monitored by measuring tumor area (length × width) using a caliper. Animal body weight was monitored as an indicator of treatment-related toxicity. Measurement of tumor area and body weight was performed at least twice weekly. Individual animals were sacrificed when showing >20% body weight loss or when tumors reached a maximum area of ~200 mm^2 unless ulceration or other predefined humane endpoints were met. At study termination, the animals were sacrificed by cervical dislocation under CO2 anesthesia. T/C (treatment/control) ratios were calculated using the final mean tumor areas at study or control group termination. […] Progressive disease (PD) was defined as a greater than 20% increase in tumor size. Partial response (PR) was defined as a greater than 30% reduction in tumor size. Complete response (CR) was defined as an absence of any palpable tumor mass. No tumor growth or a slight reduction (<30%) or small increase (<20%) in tumor size was defined as stable disease (SD).

[4] = system: MX-1 TNBC xenograft model
Description: In the MX-1 efficacy study, the in vivo-grown tumor fragments (2 mm × 2 mm × 2 mm) were implanted s.c. in immunocompromised female NMRI nu/nu mice (8–10 weeks, 18–21 g, Taconic M&B A/S). The mice were randomized into control and treatment groups (n = 8) when the MX-1 tumors reached an average size of 25 mm^2.
as §3

[5] = topotecan 0.5 mg/kg, 7 on/7 off, i.v.
[6] = irinotecan 15 mg/kg, 4 on/3 off, i.v.
[7] = irinotecan 30 mg/kg, Q2/3D, i.v.
[8] = MX-1, irinotecan 15 mg/kg, 4 on/3 off, i.v., Day 86, RECIST
[9] = MX-1, irinotecan 30 mg/kg, Q2/3Dx9, i.v., Day 86, RECIST
[10] = cisplatin 3 mg/kg, Q3Dx14, i.p.

T1 sequence (P08183 whole entry): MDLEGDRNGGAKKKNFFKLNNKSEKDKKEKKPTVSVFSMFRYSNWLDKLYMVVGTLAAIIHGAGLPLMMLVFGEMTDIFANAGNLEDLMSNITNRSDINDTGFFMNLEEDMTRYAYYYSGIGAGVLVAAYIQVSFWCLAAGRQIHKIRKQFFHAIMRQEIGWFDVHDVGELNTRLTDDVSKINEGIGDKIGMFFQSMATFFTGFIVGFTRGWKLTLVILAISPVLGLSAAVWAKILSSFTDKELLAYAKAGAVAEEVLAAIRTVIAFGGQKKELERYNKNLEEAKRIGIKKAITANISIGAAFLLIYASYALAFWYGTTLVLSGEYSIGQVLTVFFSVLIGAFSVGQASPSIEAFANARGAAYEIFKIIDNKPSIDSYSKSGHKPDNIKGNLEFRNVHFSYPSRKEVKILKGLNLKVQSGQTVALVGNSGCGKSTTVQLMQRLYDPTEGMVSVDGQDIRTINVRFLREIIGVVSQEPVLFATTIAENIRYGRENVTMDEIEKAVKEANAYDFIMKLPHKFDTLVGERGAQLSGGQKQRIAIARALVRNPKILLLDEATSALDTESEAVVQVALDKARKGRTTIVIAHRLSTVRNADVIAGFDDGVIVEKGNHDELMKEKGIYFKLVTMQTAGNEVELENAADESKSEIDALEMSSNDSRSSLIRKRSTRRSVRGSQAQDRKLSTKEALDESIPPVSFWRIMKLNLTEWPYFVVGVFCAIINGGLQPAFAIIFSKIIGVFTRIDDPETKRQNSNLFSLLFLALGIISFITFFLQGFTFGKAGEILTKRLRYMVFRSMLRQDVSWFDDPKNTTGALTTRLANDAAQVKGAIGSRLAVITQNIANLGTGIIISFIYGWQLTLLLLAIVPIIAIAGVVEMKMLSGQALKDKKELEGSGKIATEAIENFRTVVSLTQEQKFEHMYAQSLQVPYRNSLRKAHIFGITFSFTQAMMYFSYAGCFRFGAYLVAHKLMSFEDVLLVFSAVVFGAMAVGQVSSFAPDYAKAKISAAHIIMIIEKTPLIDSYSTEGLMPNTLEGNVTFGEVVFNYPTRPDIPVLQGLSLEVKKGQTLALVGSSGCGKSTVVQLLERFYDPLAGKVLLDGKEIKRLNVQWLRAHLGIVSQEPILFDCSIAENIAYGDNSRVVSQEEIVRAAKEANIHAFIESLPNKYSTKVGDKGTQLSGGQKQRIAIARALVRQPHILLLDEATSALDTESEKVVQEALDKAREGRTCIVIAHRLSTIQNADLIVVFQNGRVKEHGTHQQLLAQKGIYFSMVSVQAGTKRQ

SMILES: CCc1c2c(nc3ccc(O)cc13)-c1cc3c(c(=O)n1C2)COC(=O)[C@]3(O)CC [SN38]
- IC50 (NCI-H1975 cells): 45 nM
- IC50 (NCI-H1975-BCRP cells): 512 nM
- Efflux Ratio (Caco-2 cells): 36
- Permeability A → B (Caco-2 cells): 0.8 ×10⁻⁶ cm/s
- IC50 (NCI-H1975-P-gp cells): 141 nM
- Efflux Ratio [1]: 16
- Permeability A → B [1]: 1 ×10⁻⁶ cm/s

SMILES: CC[C@@]1(O)C(=O)OCc2c1cc1n(c2=O)Cc2cc3c(CN(C)C)c(O)ccc3nc2-1 [Topotecan]
- Treatment/Control Ratio [2, 5]: 0.20 ***
- Response: PD (progressive disease) [2, 5]: 7/8
- Response: SD (stable disease) [2, 5]: 1/8
- Relative body weight loss ([2]; NCI-H69 tumor-bearing mice, topotecan 0.5 mg/kg, 7 on/7 off, i.v.): > 10%

SMILES: CCc1c2c(nc3ccc(OC(=O)N4CCC(N5CCCCC5)CC4)cc13)-c1cc3c(c(=O)n1C2)COC(=O)[C@]3(O)CC [Irinotecan]
- Tumor regrowth after treatment cessation ([3]; all VIP236- and irinotecan-treated mice): moderate tumor regrowth
- Treatment/Control Ratio [3, 6]: 0.13 ***
- Response: PR (partial response) [3, 6]: 5/8
- Response: SD (stable disease) [3, 6]: 3/8
- Treatment/Control Ratio [3, 7]: 0.15 ***
- Response: PD (progressive disease) [3, 7]: 1/8
- Response: PR (partial response) [3, 7]: 4/8
- Response: SD (stable disease) [3, 7]: 3/8
- Treatment/Control Ratio ([4]; MX-1, irinotecan 15 mg/kg, 4 on/3 off, i.v., Day 86): 0.002 ***
- Response: CR (complete response) [4, 8]: CR: 4/8, PR: 4/8
- Response: PR (partial response) [4, 8]: CR: 4/8, PR: 4/8
- Tumor regrowth after treatment was stopped ([4]; MX-1, irinotecan 30 mg/kg, Q2/3Dx9, i.v.): clear tumor regrowth
- Treatment/Control Ratio ([4]; MX-1, irinotecan 30 mg/kg, Q2/3Dx9, i.v., Day 86): 0.15 ***^, #
- Response: PR (partial response) [4, 9]: 5/7
- Response: SD (stable disease) [4, 9]: 2/7
- Relative body weight loss ([4]; mouse, in vivo): > 10%

SMILES: COc1cccc2c1C(=O)c1c(O)c3c(c(O)c1C2=O)C[C@@](O)(C(=O)CO)C[C@@H]3O[C@H]1C[C@H](N)[C@H](O)[C@H](C)O1 [Doxorubicin]
- Treatment/Control Ratio ([4]; MX-1, doxorubicin 10 mg/kg, Q14Dx2, i.v., Day 86): 0.49 ***

SMILES: O=c1[nH]cc(F)c(=O)[nH]1 [5-FU, 5-fluorouracil]
- Treatment/Control Ratio ([3]; 5-FU 100 mg/kg, Q7D, i.p.): 0.54 ***
- Response: PD (progressive disease) ([3]; 5-FU 100 mg/kg, Q7D, i.p.): PD: 8/8

SMILES: N.N.[Cl][Pt][Cl] [Cisplatin]
- Treatment/Control Ratio [2, 10]: 0.25 ***
- Response: PD (progressive disease) [2, 10]: 7/8
- Response: SD (stable disease) [2, 10]: 1/8
- Relative body weight loss ([2]; NCI-H69 tumor-bearing mice, cisplatin 3 mg/kg, Q3Dx14, i.p.): > 10%
- Animal deaths ([2]; NCI-H69 tumor-bearing mice, cisplatin 3 mg/kg, Q3Dx14, i.p., Day 46): one animal died
